Measurements reported in publication PMC9127186, “Molecular Basis Underlying Hepatobiliary and Renal Excretion of Phenolic Acids of Salvia miltiorrhiza Roots (Danshen)” (Frontiers in Pharmacology, 2022).

How the values were obtained:
[1] = molecular target: T1, rat Mrp4 (Rattus norvegicus, UniProt F1M3J4); assay: Vesicular transport assay, inside-out membrane vesicles expressing rat Mrp4; details: for TransportATP/TransportAMP ratio (net transport ratio): 10 min
T1 sequence (F1M3J4 1-1325): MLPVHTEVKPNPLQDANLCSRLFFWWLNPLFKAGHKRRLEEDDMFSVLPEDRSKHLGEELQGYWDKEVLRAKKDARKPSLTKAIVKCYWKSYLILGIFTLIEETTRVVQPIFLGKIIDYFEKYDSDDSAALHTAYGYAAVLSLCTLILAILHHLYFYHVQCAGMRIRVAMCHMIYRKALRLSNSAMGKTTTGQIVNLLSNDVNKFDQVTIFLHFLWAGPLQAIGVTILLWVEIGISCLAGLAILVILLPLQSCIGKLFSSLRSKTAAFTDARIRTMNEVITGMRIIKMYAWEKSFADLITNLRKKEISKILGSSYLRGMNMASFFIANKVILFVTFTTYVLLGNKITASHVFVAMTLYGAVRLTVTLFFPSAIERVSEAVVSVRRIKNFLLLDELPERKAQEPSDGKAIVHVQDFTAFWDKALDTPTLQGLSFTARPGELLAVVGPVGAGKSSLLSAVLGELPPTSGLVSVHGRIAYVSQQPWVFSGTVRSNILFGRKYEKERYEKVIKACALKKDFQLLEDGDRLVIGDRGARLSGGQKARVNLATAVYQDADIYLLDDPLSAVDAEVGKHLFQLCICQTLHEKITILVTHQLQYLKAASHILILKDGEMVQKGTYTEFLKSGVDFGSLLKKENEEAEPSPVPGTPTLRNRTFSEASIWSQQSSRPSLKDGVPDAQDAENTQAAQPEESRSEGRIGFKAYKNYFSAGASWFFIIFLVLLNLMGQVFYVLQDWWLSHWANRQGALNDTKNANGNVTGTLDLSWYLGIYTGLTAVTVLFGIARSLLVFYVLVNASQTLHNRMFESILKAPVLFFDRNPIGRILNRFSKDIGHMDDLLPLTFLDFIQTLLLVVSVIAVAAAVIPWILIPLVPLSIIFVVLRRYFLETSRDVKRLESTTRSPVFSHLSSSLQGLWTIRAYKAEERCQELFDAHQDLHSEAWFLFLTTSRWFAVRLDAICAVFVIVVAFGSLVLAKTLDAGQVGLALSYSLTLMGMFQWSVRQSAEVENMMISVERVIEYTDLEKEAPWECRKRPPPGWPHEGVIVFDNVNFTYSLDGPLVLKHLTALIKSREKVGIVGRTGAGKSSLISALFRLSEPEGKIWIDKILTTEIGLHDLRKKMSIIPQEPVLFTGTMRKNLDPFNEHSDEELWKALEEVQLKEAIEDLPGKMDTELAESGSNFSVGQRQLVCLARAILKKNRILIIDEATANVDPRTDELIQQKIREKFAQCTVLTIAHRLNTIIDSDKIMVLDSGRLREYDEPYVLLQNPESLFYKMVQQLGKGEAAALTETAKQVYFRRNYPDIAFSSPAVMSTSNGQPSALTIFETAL
Protocol: (§1) Inside-out membrane vesicles (5 mg protein/mL), prepared from insect cells expressing human multidrug resistance-associated protein (MRP) 2, MRP3, MRP4, breast cancer resistance protein (BCRP), bile salt export pump (BSEP), and multidrug resistance protein (MDR) one and rat Mrp2, Mrp4, Bcrp, and Bsep, and vesicles (5 mg protein/mL; prepared from the insect cells expressing no ABC transporter; serving as negative control) were obtained from Genomembrane (Kanazawa, Japan).
(§2) The test Danshen compounds at 100 µM final concentration were separately incubated with the membrane vesicles for 10 min. Buffer C (50 mM MOPS-tris, 70 mM KCl, 7.5 mM MgCl2, pH 7.0) was used for preincubation and incubation, while buffer D (40 mM MOPS-tris, 70 mM KCl, pH 7.0) was used for vesicle washing. The transport rate (pmol/mg protein/min) of the test Danshen compound was calculated using Equation (2): Transport=(CV×VV)/T/WV (2) where C V, V V, T, and W V represent concentration of the compound in vesicular lysates supernatant (μM), volume of the lysates (μL), incubation time (10 min), and amount of vesicle protein amount per well (0.05 mg), respectively. Differential transport of the test Danshen compound between ATP-containing vesicles and AMP-containing vesicles was defined as net transport ratio (TransportATP/TransportAMP ratio). […] All the incubation samples were analyzed by liquid chromatography/mass spectrometry.

[2] = molecular target: T2, human OAT1 (Homo sapiens, UniProt Q4U2R8); assay: Cellular transport assay, HEK-293 cells expressing human OAT1; details: for TransportTC/TransportMC ratio (net transport ratio): 10 min; for K m: human renal basolateral uptake OAT1, 5 min incubation, concentrations in Table 1
T2 sequence (Q4U2R8 1-563): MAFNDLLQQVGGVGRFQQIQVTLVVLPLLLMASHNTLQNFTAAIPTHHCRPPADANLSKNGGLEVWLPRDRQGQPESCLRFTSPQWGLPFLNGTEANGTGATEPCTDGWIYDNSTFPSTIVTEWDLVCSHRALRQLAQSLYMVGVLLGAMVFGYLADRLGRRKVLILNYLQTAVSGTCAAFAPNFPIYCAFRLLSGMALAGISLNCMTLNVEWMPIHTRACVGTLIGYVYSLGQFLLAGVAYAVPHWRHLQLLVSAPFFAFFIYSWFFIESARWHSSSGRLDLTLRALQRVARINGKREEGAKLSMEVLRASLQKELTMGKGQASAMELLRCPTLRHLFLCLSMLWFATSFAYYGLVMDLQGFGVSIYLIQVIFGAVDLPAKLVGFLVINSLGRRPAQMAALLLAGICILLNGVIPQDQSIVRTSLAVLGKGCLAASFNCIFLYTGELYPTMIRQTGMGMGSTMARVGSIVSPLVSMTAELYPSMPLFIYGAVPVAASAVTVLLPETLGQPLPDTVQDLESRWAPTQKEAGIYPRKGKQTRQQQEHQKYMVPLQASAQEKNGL
Protocol: Briefly, HEK-293 cells were grown, at 37°C and 5% CO2, in Dulbecco’s modified Eagle’s medium, which was fortified with 10% fetal bovine serum, 1% minimal essential medium nonessential amino acids, and 1% antibiotic-antimycotic solution. A day before transfection, cells were seeded onto 24-well poly-D-lysine-coated plates at a density of 2 × 10^5 cells per well. After incubation at 37°C and 5% CO2 for 24 h, the expression plasmid and the empty vector were introduced separately into the HEK293 cells with Lipofectamine 2000 transfection reagent (Invitrogen, Carlsbad, CA, United States), according to the manufacturer’s protocol to yield transporter-expressing cells and mock cells, respectively.
Transport studies were performed 48 h after the transfection. […] Differential uptake between the transfected cells and mock cells was defined as net transport ratio (TransportTC/TransportMC ratio), where TransportTC and TransportMC are the transport rates of a test Danshen compound into transfected and mock cells, respectively. […] The determination was performed under linear uptake conditions by incubation for 5 min. Table 1 summarizes the final concentrations of the test Danshen compounds for different transporters. All the incubation samples were analyzed by liquid chromatography/mass spectrometry.
GraFit software (version 5.0; Erithacus Software Ltd, Surrey, United Kingdom) was used to determine the K m and V max values by nonlinear regression analysis of initial transport rates as a function of substrate concentration.

[3] = molecular target: human BSEP (Homo sapiens, UniProt O95342); assay: Vesicular transport assay, inside-out membrane vesicles expressing human BSEP; details: 10 min
Sequence of human BSEP (O95342 whole entry): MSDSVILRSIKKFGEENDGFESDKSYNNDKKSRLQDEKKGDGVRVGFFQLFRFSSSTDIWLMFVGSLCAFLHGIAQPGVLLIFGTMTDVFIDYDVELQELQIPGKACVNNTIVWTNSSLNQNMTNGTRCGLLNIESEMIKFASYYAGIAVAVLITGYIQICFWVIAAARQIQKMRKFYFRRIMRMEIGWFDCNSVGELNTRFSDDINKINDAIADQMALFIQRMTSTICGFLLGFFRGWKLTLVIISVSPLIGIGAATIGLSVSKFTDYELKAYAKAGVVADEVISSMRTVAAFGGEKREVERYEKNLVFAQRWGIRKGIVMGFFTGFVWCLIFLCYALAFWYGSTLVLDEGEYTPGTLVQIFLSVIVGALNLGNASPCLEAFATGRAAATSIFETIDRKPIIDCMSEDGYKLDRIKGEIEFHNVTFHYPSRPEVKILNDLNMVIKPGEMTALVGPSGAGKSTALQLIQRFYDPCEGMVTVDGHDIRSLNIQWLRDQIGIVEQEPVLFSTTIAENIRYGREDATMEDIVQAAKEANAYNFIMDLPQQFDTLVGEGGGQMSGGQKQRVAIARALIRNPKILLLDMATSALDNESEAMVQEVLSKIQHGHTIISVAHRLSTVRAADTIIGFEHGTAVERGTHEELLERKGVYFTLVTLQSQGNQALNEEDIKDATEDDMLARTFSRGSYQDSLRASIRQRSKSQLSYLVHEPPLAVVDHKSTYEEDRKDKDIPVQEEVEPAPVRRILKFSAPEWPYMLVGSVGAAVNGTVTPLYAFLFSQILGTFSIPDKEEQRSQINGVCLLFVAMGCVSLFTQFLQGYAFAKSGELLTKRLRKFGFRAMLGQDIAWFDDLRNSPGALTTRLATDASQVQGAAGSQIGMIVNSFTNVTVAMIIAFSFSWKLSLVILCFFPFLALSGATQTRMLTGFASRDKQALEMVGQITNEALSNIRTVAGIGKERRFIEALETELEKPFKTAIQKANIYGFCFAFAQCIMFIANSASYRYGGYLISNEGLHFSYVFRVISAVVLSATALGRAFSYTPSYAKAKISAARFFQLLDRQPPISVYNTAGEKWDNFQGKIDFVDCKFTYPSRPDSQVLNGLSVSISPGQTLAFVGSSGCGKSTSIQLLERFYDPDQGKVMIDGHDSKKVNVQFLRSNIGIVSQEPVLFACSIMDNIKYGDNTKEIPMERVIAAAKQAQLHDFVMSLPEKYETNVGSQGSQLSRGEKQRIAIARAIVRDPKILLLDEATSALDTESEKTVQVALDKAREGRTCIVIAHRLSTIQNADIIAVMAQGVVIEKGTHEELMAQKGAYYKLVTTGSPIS
Protocol: as §1, §2

[4] = Danshen phenolic acid at 100 μM final concentration, rat Mrp4 vesicles
[5] = Danshen phenolic acid at 100 μM final concentration, human OAT1-transfected vs mock cells
[6] = Danshen phenolic acid at 100 μM final concentration, human BSEP vesicles

Row | Compound | TransportATP/TransportAMP ratio (net transport ratio) [1, 4] | TransportTC/TransportMC ratio (net transport ratio) [2, 5] | TransportATP/TransportAMP ratio (net transport ratio) [3, 6] | substrate of human OAT1 [2] | microsomal CLint ([2]; human) [µL/min/mg] | K m [2] [µM] | substrate of rat Mrp4 [1] | TransportATP/TransportAMP ratio (net transport ratio) ([1]; rat, 100 μM, pH 7) | TransportTC/TransportMC ratio (net transport ratio) ([2]; human, 100 μM) | microsomal CLint ([2]; human, other cell line) [µL/min/mg] | TransportATP/TransportAMP ratio (net transport ratio) ([3]; human, 100 μM, pH 7)
1 | O=C(/C=C/c1ccc(O)c2c1[C@H](C(=O)O)[C@@H](c1ccc(O)c(O)c1)O2)O[C@H](Cc1ccc(O)c(O)c1)C(=O)O [Lithospermic acid, lithospermic acid] | 1.46 ± 0.01 | 2.09 ± 0.89 | 0.83 ± 0.20 |  |  |  |  |  |  |  | 
2 | O=C(O)c1ccc(O)c(O)c1 [Protocatechuic acid, protocatechuic acid] | 1.17 ± 0.06 | 53.1 ± 3.9 | 0.99 ± 0.21 | substrates | 6.43 | 37.6 ± 2.5 |  |  |  |  | 
3 | O=C(/C=C/c1ccc(O)c(O)c1)O[C@H](Cc1ccc(O)c(O)c1)C(=O)O [Rosmarinic acid, rosmarinic acid] |  |  |  | substrates |  | 70.8 ± 6.4 | substrates | 4.79 ± 0.38 | 46.8 ± 10.9 | 2.55 | 1.03 ± 0.09
4 | O=C(/C=C/c1ccc(O)c(O)c1/C=C/c1ccc(O)c(O)c1)O[C@H](Cc1ccc(O)c(O)c1)C(=O)O [Salvianolic acid A, salvianolic acid A] |  |  |  |  |  |  |  | 2.09 ± 0.25 | 1.02 ± 0.14 |  | 1.32 ± 0.26
5 | O=C(O)Cc1c(/C=C/C(=O)O[C@H](Cc2ccc(O)c(O)c2)C(=O)O)ccc(O)c1O [Salvianolic acid D, salvianolic acid D] | 11.1 ± 0.2 | 11.7 ± 2.4 | 1.19 ± 0.35 | substrates | 2.08 | 18.1 ± 2.3 | substrates |  |  |  | 
6 | O=C(O)C(O)Cc1ccc(O)c(O)c1 (stereo not shown) [Tanshinol, tanshinol] |  |  |  |  |  | 98.9 ± 7.1 |  |  |  | 10.5 | 
7 | salvianolic acid B | 2.15 ± 0.32 | 1.21 ± 0.14 | 1.43 ± 0.32 |  |  |  |  |  |  |  | 
